Laboratory results as given in patent US20250154457A1, “T-CELLS FOR ANTI-HIV CAR-T THERAPY AND METHODS OF USE” (City of Hope, priority 2021, published 2025).

Key:
Assay type in all cases: cell-based
[1] = test system: HPRT; experiment: Quantitative PCR of HPRT expression after transfection of shHPRT plasmid in Jurkat cells; details: transfected with shHPRT plasmid, FIG. 2A
Description: (§1) FIGS. 2A-2D. 6TG selection of HPRT repressed CAR T-cells. FIG. 2A. Quantitative PCR analysis of HPRT expression following transfection of shHPRT plasmid. Untransfected Jurkat cells were used as a control. FIG. 2B. N6 CAR (control) or shHPRT-N6 CAR were transduced into Jurkat cells and co-cultured with either gp120 expressing HEK293 cells or HEK293 parental cells for 24 hours. Following incubation, the Jurkat cells were analyzed for CD69 expression by flow cytometry. FIG. 2C.

[2] = test system: gp160-expressing HEK293 cells; experiment: CD69 activation of 6TG enriched anti-HIV CAR Jurkat cells co-cultured with gp160-expressing HEK293 cells; details: 24 hour incubation, 6TG selected vs unselected anti-HIV CAR Jurkat cells
Description: Following a 24 hour incubation, CD69 expression was analyzed.

[3] = test system: Jurkat cells; experiment: 6TG selection of shHPRT-N6 CAR expressing Jurkat cells; details: Jurkat cells, 0, 1, or 3 uM 6TG for four days, trypan blue
Description: as §1

[4] = test system: T-cells; experiment: 6TG dose titration and multi-dosing selection of enrichment anti-HIV CAR T-cells
Description: The cell counts of the T-cells, in addition to anti-HIV CAR expression percentage were measured over the course of culturing.

[5] = test system: T-cells; experiment: Growth and phenotype of enrichment anti-HIV CAR T-cells after 6TG selection
[6] = test system: CCR5; experiment: CCR5 knockdown in Magi.CCR5 reporter cells (PCR and flow cytometry)
Source text: FIGS. 5A-5C. Wobble base CCR5 shRNAs functionality. FIG. 5A. Quantitative PCR analysis of MAGI.CCR5 cells transduced with protection CAR (shCCR5w shTat/Rev anti-HIV CAR), compared to mock-transduced cells and cells transduced with conventional anti-HIV CAR without the shRNA. Decreased levels of CCR5 mRNA indicate successful knock-down using the protection CAR. FIG. 5B. CCR5 surface expression on MAGI.CCR5 cells transduced with the protection CAR compared to CCR5 expression on mock-transduced cells and on cells transduced with anti-HIV CAR without the shRNA. FIG. 5C. CCR5 surface expression on T-cells transduced with protection CAR (shCCR5w shTat/Rev anti-HIV CAR), compared to mock-transduced cells and cells transduced with conventional anti-HIV CAR without the shRNA. Decreased levels of CCR5 are indicative of successful knockdown using anti-CCR5 shRNA.
Next, Applicant determined whether the shRNAs were functional. To test the shCCR5, Applicant transfected the protection and conventional CAR into Magi reporter line expressing CCR5 (Magi.CCR5). […] To confirm knock-down of CCR5, Applicant transduced T-cells with protection and conventional anti-HIV CAR constructs and analyzed CCR5 surface expression.

With “anti-HPRT shRNA: shRNA that downregulates expression of the HPRT gene, SEQ ID NO:12 (GCACUGAAUAGAAAUGGUGGUUCAAGAGAUCACUAUUUCUAUUCAGUGCUU)” the HPRT expression [1] was “robustly repressed”.
For `Nc1nc(=S)c2[nH]cnc2[nH]1` [6TG, 6-thioguanine], the “activation as assessed by CD69 levels” value [2] was “decrease in activation”, the “cell counts and viability after 6TG” value [3] was “eliminates cells that lack the anti-HPRT shRNA” and the “enrichment of anti-HIV CAR T-cells at 50 nM” value ([4]; 50 nM 6TG, single dose titration) was “most enrichment potential”. For the same compound, the “effect on cell counts at 100 nM” value ([4]; 100 nM 6TG) was “loss of a number of T-cells transduced with the enrichment anti-HIV CAR construct”, the “effect on cells at 1 M 6TG” value ([4]; 6TG, data not shown) was “loss of all T-cells” and the “effect on cell counts at 10, 20, and 50 nM” value ([4]; 10, 20, and 50 nM 6TG) was “exerted toxic effects on the non-transduced T-cells”. For the same compound, the “optimized dose of 6TG to enrich CAR T-cells” value ([4]; without impacting growth) was 50 nM, the “growth of anti-HIV CAR T-cells” value ([5]; 6TG-treated vs not subjected to 6TG) was “equivalent” and the “total T-cell growth” value ([5]; after treatment with 6TG) was “decreased over the course of culture”. The “exhaustion markers (PD-1, Tim3, Lag-3)” value ([5]; following 6TG treatment) was “No noticeable changes”.
“shCCR5w: anti-CCR5 shRNA wobble base, SEQ ID NO: 11 (AGUGUCAAGUCCAAUUUGUGGUUCAAGAGAUCAUAGAUUGGACUUGACACUUU)” was tested, and the CCR5 knockdown [6] was “successful in knocking down CCR5”.
